{"source": "patent US20080214471A1", "about": "“Method for inhibition of viral infection” (priority 1992, published 2008)", "key": {"HDV virions [1]": {"tested_on": "HDV virions", "test": "Inhibition of HDV virion production in co-transfected Huh-7 cells (northern blot for HDV genomic RNA)", "type": "cell-based, hepatitis delta virus (HDV)", "details": "Huh-7 cells co-transfected with HDV and HBV plasmids", "excerpt": "(§1) FIG. 8 illustrates that FT1-277 inhibits production of HDV virions. Huh-7 cells were co-transfected with HDV and HBV encoding plasmids to establish production of HDV virions, as described in the text, and grown in the presence of the indicated concentrations of FTI-277. HDV genome replication in the cells, and the amount of HDV genome-containing virions released into the supernatants, were monitored by northern blot analysis with a probe for HDV genomic RNA (left panel). The results were quantitated with a phosphoimager and the amount of virions produced at each concentration of FTI-277, expressed as a percentage of the no drug control, was plotted (purple bars, right panel). Also plotted are the results of assays for cellular metabolism (XTT assay, yellow bars), and general protein synthesis and secretion (HBV surface antigen released into the media supernatants, blue bars).\nCompletely infectious HDV particles were produced using the system disclosed in Sureau et al., J. Virol., 66:1241-5 (1992). […]\n(§2) FTI-277, a prenylation inhibitor, was tested for its ability to inhibit HDV virion production. […] Non-specific toxicity was assessed by free HBV surface antigen assay, which assesses effects on general protein synthesis and secretion, and a standard XTT assay, which measures overall cell metabolism."}, "Huh-7 cells [2]": {"tested_on": "Huh-7 cells", "test": "Free HBV surface antigen assay (general protein synthesis and secretion)", "type": "cell-based", "details": "at a concentration that effectively inhibits HDV virion production", "excerpt": "as §1, §2"}, "Huh-7 cells [3]": {"tested_on": "Huh-7 cells", "test": "Standard XTT assay (overall cell metabolism)", "type": "cell-based", "details": "at a concentration that effectively inhibits HDV virion production", "excerpt": "as §1, §2"}, "HDV virions [4]": {"tested_on": "HDV virions", "test": "In vivo treatment of HDV in HBV-transgenic mice, serum HDV virions by RT-PCR", "details": "50 mg/kg/day IP for one week"}, "[5]": {"test": "Serum alanine aminotransferase (ALT) assay for non-specific toxicity", "details": "HBV-transgenic mice, 50 mg/kg/day IP for one week, on average"}}, "data": [{"compound": "COC(=O)[C@H](CCSC)NC(=O)c1ccc(NC[C@@H](N)CS)cc1-c1ccccc1", "note": "[FTI-277]", "values": [{"measurement": "HDV virion production", "setting": "HDV virions [1]; micromolar concentration", "result": "no detectable HDV virions produced"}, {"measurement": "HDV virion production", "setting": "HDV virions [1]; mid-nanomolar concentration", "result": "dramatically inhibited"}, {"measurement": "general protein synthesis and secretion (free HBV surface antigen released into media)", "setting": "Huh-7 cells [2]", "result": "essentially does not affect"}, {"measurement": "overall cell metabolism (XTT assay)", "setting": "Huh-7 cells [3]", "result": "essentially does not affect"}, {"measurement": "production and release of HDV virions into the serum", "setting": "HDV virions [4]", "result": "completely eliminated"}, {"measurement": "level of ALT compared with the placebo", "setting": "[5]", "result": "same level of ALT as the placebo"}]}]}
